Results published in EP2650000A1, “Utilization of copper complexes involving 2-phenyl-3-hydroxy-4(1H)-quinolinone and 1,10-phenanthroline derivatives for the preparation of drugs for the treatment of tumour diseases” (Univerzita Palackeho, priority 2012, dated 2013).

Tests used:
Format in all cases: cell-based
[1] = system: human ovarian carcinoma cell line (A2780); assay: MTT assay, in vitro anticancer activity, A2780; conditions: A2780 cells, 24 hours incubation, read-out: inhibition concentrations IC50
Experimental: (§1) The in vitro anticancer activity of the prepared complexes listed as the examples below was determined by the MTT assay. The method is based on the ability of metabolic-active cells to reduce (by mitochondrial dehydrogenases) the yellow tetrazolium dye (3-(4,5-dimethylthiazol-2-yl)-2,5-diphenyltetrazolium bromide (MTT)) to the blue formazane end-product. Because the reduction proceeds only in the living cells, the cytotoxicity of various compounds can be determined using this process. The water-insoluble formazane is quantified after dissolving in dimethyl sulfoxide (DMSO) with the solution of ammonia on a spectrophotometer (ELISA reader). The in vitro anticancer activity testing was performed on the following human cancer cell lines: lung adenocarcinoma (A549), cervix epitheloid carcinoma (HeLa), malignant melanoma (G361), ovarian carcinoma (A2780), cisplatin-resistant ovarian carcinoma (A2780R) and prostate carcinoma (LNCaP). The cell lines were maintained in plastic vessels in the DMEM medium (5 g/l glucose, 2 mM glutamine, 100 U/mL penicillin, 100 µg/mL streptomycin, 10% foetal calf serum and sodium bicarbonate) for cell cultures. The 80 µL of cell suspensions (ca. 1.25 × 10^5 cells per mL) were pipetted onto 96-well plastic microtitration plates. These were further pre-incubated at 37 °C in the CO2 atmosphere for 24 hours. The tested copper complexes and cisplatin, used as positive and therapeutic standard, were dissolved in N,N'-dimetylformamide in the concentrations up to 50 mM which served as stock solutions. For the experiment, the stock solutions were diluted 1000 x in the incubation medium (maximum concentration of 50.0 µM). After removal of the cultivation media, the mixtures of appropriate concentration were added to the cancer cells for the incubation period of 24 hours. The MTT analysis was performed spectrophotometrically (TECAN, Schoeller Instruments LLC) at 540 nm.
(§2) The concentrations of the tested complexes (µM) toxic for 50% of cancer cells (inhibition concentration IC50) were calculated from the dose-response curves.
The determination of in vitro anticancer activity of the studied compounds 1-6 and cisplatin against human ovarian carcinoma cell line (A2780) was performed by the MTT assay.

[2] = system: human malignant melanoma cancer cell line (G361); assay: MTT assay, in vitro anticancer activity, G361; conditions: G361 cells, 24 hours incubation, read-out: inhibition concentrations IC50
Experimental: as §1, with “The 80 µL of cell suspensions (ca. 1.25 × 10^5 cells per mL) were pipetted onto 96-well plastic microtitration plates.” left out

[3] = system: human cisplatin-resistant ovarian carcinoma cell line (A2780R); assay: MTT assay, in vitro anticancer activity, A2780R; conditions: A2780R cells, 24 hours incubation, read-out: inhibition concentrations IC50
Experimental: as §1, §2
The determination of in vitro anticancer activity of the studied compounds 1-6 and cisplatin against human cisplatin-resistant ovarian carcinoma cell line (A2780R) was performed by the MTT assay.

[4] = system: human prostate carcinoma cell line (LNCaP); assay: MTT assay, in vitro anticancer activity, LNCaP; conditions: LNCaP cells, 24 hours incubation, read-out: inhibition concentrations IC50
Experimental: as §1, §2
The determination of in vitro anticancer activity of the studied compounds 1-6 and cisplatin against human prostate carcinoma cell line (LNCaP) was performed by the MTT assay.

[5] = system: human cervix epitheloid carcinoma cell line (HeLa); assay: MTT assay, in vitro anticancer activity, HeLa; conditions: HeLa cells, 24 hours incubation, read-out: inhibition concentrations IC50
Experimental: as §1, §2
The determination of in vitro anticancer activity of the studied compounds 1-6 and cisplatin against human cervix epitheloid carcinoma cell line (HeLa) was performed by the MTT assay.

[6] = system: human lung adenocarcinoma cell line (A549); assay: MTT assay, in vitro anticancer activity, A549; conditions: A549 cells, 24 hours incubation, read-out: inhibition concentrations IC50
Experimental: as §1, §2
The determination of in vitro anticancer activity of the studied compounds 1-6 and cisplatin against human lung adenocarcinoma cell line (A549) was performed by the MTT assay.

Row | SMILES | IC50 [1] [nM] | IC50 [2] [nM] | IC50 [3] [nM] | IC50 [4] [nM] | IC50 [5] [nM] | IC50 [6] [nM]
1 | F[B-](F)(F)F.O=c1c([O-])c(-c2ccccc2)[nH]c2ccccc12.[Cu+2].c1ccc(-c2ccnc3c2ccc2c(-c4ccccc4)ccnc23)cc1 [complex 6, (2-phenyl-4-oxo-1,4-dihydroquinolin-3-olato-κ^2O^3:O^4) (4,7-diphenyl-1,10-phenanthroline-κ^2N^1:N^10) copper(II) tetrafluoroborate] | 570 ± 110 | 720 ± 60 | 700 ± 200 | 620 ± 80 | 1300 ± 400 | 1300 ± 400
2 | O=[N+]([O-])[O-].O=c1c([O-])c(-c2ccccc2)[nH]c2ccccc12.[Cu+2].c1ccc(-c2ccnc3c2ccc2c(-c4ccccc4)ccnc23)cc1 [complex 3, (2-phenyl-4-oxo-1,4-dihydroquinolin-3-olato-κ^2O^3:O^4)(4,7-diphenyl-1,10-phenanthroline-κ^2N^1:N^10)copper(II) nitrate monohydrate] | 660 ± 70 | 960 ± 30 | 730 ± 90 | 740 ± 210 | 1000 ± 200 | 1700 ± 300
3 | Cc1cc2cccnc2c2ncccc12.O=[N+]([O-])[O-].O=c1c([O-])c(-c2ccccc2)[nH]c2ccccc12.[Cu+2] [complex 2, (2-phenyl-4-oxo-1,4-dihydroquinolin-3-olato-κ^2O^3:O^4)(5-methyl-1,10-phenanthroline-κ^2N^1:N^10)copper(II) nitrate monohydrate] | 380 ± 30 | 530 ± 220 | 780 ± 70 | 2100 ± 600 | 2600 ± 400 | 2500 ± 600
4 | Cc1cc2cccnc2c2ncccc12.F[B-](F)(F)F.O=c1c([O-])c(-c2ccccc2)[nH]c2ccccc12.[Cu+2] [complex 5, (2-phenyl-4-oxo-1,4-dihydroquinolin-3-olato-K^2O^3:O^4)(5-methyl-1,10-phenanthroline-κ^2N^1:N^10)copper(II) tetrafluoroborate monohydrate] | 360 ± 50 | 530 ± 90 | 560 ± 150 | 1500 ± 600 | 2400 ± 1000 | 2500 ± 600
5 | N.N.[Cl][Pt][Cl] [cisplatin, cis-diammine-dichlorido platinum(II) complex, reference compound] | 12000 ± 800 | 3400 ± 100 | 27000 ± 4600 | 3800 ± 1500 | 10000 ± 2600 | 25800 ± 7100
6 | O=[N+]([O-])[O-].O=c1c([O-])c(-c2ccccc2)[nH]c2ccccc12.[Cu+2].c1cnc2c(c1)ccc1cccnc12 [complex 1, (2-phenyl-4-oxo-1,4-dihydroquinolin-3-olato-κ^2O^3:O^4)(1,10-phenanthroline-κ^2N^1:N^10)copper(II) nitrate monohydrate] | 650 ± 280 | 820 ± 150 | 830 ± 300 | 2400 ± 600 | 2900 ± 300 | 2500 ± 400
7 | F[B-](F)(F)F.O=c1c([O-])c(-c2ccccc2)[nH]c2ccccc12.[Cu+2].c1cnc2c(c1)ccc1cccnc12 [complex 4, (2-phenyl-4-oxo-1,4-dihydroquinolin-3-olato-κ^2O^3:O^4) (1,10-phenanthroline-κ^2N^1:N^10)copper(II) tetrafluoroborate] | 520 ± 100 | 640 ± 200 | 1700 ± 600 | 1900 ± 600 | 2700 ± 600 | 3900 ± 1200
